Test results as given in patent publication US10512631B2, “Chalcone compounds” (Beth Israel Deaconess Medical Center, Inc., priority 2015, dated 2019).

Assays:
Type in all cases: cell-based
[1] = system: DNA synthesis; experiment: BrDU proliferation; settings: data not shown
[2] = system: A549 cells; experiment: Invasion chambers (Transwell, Matrigel); settings: serum chemoattractants, compared to untreated cells
Experimental: The invasion of A549 cells was measured using Transwell chambers (Chemicon, Millipore, Calif.) according to the manufacturer's protocol. Briefly, A549 cells were treated with test compounds at 1 μM in 500 μl of DMEM medium without FBS for 24 hours. Medium in the upper chamber was serum-free while medium in the lower chamber contained 10% FBS as a source of chemoattractants. Cells that passed through the Matrigel-coated membrane were stained and photographed after 24 hours of incubation. Absorbance was measured at 562 nm by ELISA reader after dissolving of stained cells in 10% acetic acid.

[3] = biological target: T1, ASK1 kinase and STMN1 interaction (Homo sapiens, UniProt Q99683); experiment: Immunoprecipitation of STMN1 / immunoblotting of P-ASK1; settings: A549 cells, 1 μM, 30 minutes
T1 construct: immunoblotting with antibody against P-ASK1 (Ser83) in A549 cells treated with 1 μM Compound 6 or DMSO; endogenous in cells; host or cells: A549 cells
T1 sequence (Q99683 1-1374): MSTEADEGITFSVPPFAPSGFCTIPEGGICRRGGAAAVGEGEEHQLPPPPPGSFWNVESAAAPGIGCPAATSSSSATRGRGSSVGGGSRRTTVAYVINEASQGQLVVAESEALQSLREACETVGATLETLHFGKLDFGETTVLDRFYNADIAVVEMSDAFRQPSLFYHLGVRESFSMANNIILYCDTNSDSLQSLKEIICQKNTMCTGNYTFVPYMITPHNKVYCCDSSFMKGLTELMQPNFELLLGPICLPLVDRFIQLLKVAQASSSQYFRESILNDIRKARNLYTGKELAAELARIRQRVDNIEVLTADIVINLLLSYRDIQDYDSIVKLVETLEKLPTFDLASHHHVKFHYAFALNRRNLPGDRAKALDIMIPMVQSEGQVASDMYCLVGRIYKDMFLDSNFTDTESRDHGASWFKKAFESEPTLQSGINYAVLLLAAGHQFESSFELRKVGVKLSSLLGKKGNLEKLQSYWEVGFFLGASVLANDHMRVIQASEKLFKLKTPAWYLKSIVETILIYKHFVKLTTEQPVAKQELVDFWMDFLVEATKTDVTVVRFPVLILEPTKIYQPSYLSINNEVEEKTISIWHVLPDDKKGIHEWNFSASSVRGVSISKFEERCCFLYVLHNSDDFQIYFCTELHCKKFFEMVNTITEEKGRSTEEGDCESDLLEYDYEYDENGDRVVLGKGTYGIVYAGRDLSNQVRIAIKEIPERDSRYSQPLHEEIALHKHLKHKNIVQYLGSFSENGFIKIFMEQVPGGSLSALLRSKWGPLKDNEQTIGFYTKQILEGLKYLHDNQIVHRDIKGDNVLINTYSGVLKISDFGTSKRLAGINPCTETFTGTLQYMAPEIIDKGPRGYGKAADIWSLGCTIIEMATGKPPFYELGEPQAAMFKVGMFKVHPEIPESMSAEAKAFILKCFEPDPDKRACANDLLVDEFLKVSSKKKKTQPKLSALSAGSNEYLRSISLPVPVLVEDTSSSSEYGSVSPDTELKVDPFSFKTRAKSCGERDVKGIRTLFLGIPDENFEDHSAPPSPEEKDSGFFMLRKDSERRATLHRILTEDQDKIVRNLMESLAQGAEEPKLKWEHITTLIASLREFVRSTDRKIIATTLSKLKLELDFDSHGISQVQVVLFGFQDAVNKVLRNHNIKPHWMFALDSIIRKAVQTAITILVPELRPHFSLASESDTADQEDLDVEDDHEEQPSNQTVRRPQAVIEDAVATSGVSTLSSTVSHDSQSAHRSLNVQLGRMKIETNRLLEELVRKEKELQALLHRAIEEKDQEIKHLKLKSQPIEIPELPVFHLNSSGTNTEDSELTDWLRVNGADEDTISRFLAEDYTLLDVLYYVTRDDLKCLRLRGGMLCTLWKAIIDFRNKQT
Experimental: Snap-frozen tissue samples were homogenized in ice-cold tissue lysis buffer (250 mM NaCl, 5 mM EDTA, 1% Triton X-100, 10 mM Tris-HCl; pH 7.5) containing the protease inhibitor cocktail Complete Mini (Roche). For co-immunoprecipitation, 200 μg protein lysates in RIPA buffer and the protease inhibitor cocktail were mixed with appropriate antibodies and 30 μl Protein A/G Plus-agarose beads (Santa Cruz Biotechnology) and then rotated for 1 hour at room temperature. The proteins were washed with RIPA buffer and eluted (95° C., 5 min in SDS loading buffer). Immunoblotting was performed as previously described in Chin et al., Proc. Natl. Acad. Sci. USA 2007, 104(12), 5109-14. Antibodies: P (Ser967)-ASK1 (Cell Signaling), Ask1 (Cell Signaling), P-STMN1 (Ser16) (Cell Signaling), STMN1 (Cell Signaling), 13-Actin (Sigma) were used at 1:1000 dilution.

[4] = system: PC3 cells; experiment: Annexin V staining; settings: 24 hours
Experimental: PC3 cells were seeded at 1×10^5 concentration in 6 well plates 24 hours before experiment. Cells were treated with Compound 6 for 24 hours. Cells were harvested and apoptosis rate was measured using Annexin V-FITC staining according to manufacturer's protocol (BD Biosciences, San Jose, Calif.).

[5] = system: PC3 cells; experiment: RT2 profiler PCR array Human Cancer Pathway; settings: after treatment vs DMSO
Experimental: RT^2 profiler PCR array Human Cancer Pathway was purchased from SA Biosciences. RNA from PC3 cells treated with DMSO or Compound 6 were isolated and prepared for RT-PCR following manufacturer' protocol. Analysis was performed online using the software provided by SA Biosciences.

[6] = system: PC3 cells; experiment: Immunofluorescence of P-Histone H3 and α-tubulin in PC3 cells (siRNA STMN1 or control)
Experimental: Immunofluorescence and immunostaining on cell lines and tumor samples were performed as described in Wegiel et al, Cancer research 2013, 73(23), 7009-21. Anti-mouse STMN1, anti-P (Ser10)-Histone H3, and α-tubulin antibody were obtained from Cell Signaling. β-actin antibody was obtained from Sigma-Aldrich. Cells were treated with Compound 6 (1 μM) or DMSO for 48 hours. After immunofluorescence staining, the number of P-Histone H3 was quantified per field of view at 40× magnification using Zeiss Axiovert Microscope.
siRNA against STMN1 and scramble siRNA were obtained from Darmacon (ONTARGET plus siRNA). PC3 cells were transiently transfected with siRNA against STMN1 or scramble siRNA using Lipofectamine 2000 (Invitrogen) as previously described in Wegiel et al., J. Biol. Chem. 2009, 7; 284(32):21369-78. Twenty four hours post-transfection, cells were split to 96 well plates and treated with test compounds for 72 hours. STMN1 levels were measured by immunoblotting to confirm successful knockdown.

[7] = system: A549; experiment: Cytoxicity / crystal violet staining, A549; settings: Homo sapiens, 0.01-5 μM for 72 hours, n=4

Cn1ccc2cc(/C=C3\CCc4ccc(F)cc4C3=O)ccc21 [Compound 6, (2E)-7-fluoro-2-[(1-methyl-1H-indol-5-yl)methylidene]-1,2,3,4-tetrahydronaphthalen-1-one]
DNA synthesis (BrDU proliferation) [1]: did not inhibit DNA synthesis
invasion / migration through matrigel coated chambers [2]: strongly inhibited invasion
ASK1 kinase and STMN1 interaction [3]: significantly blocked
Annexin V-positive cells [4]: increased number of Annexin V-positive cells
adrenomedullin mRNA elevation [5]: more than 4 fold
stathmin (STMN1) mRNA elevation [5]: more than 4 fold
number of cells undergoing mitosis (P-Histone H3) and normal mitotic spindles (α-tubulin) ([6]; 1 μM): blocked number of cells undergoing mitosis
microtubule destabilization, aberrant mitotic spindle and P-Histone H3 positive cells in the absence of STMN1 ([6]; siRNA against STMN1, 1 μM): in part reversed
IC50 [7]: 208 nM
